Measured values taken from ChEMBL document CHEMBL1201862, “PubChem BioAssay data set” (2004).
Blank lines part the entries; values can stand above or below the molecule they belong to. Active and inactive are the calls of the source. Cut-off read from the data, not from the text of the source, for most assays here: actives have a measured IC50 and inactives only a lower limit.

Columns and labels:
[1] = target: Tyrosine-protein phosphatase non-receptor type 12 (Homo sapiens, UniProt Q05209); experiment: SAR Selectivity Analysis of small molecule inhibitors of PEST using pCAP in a fluorescence assay. [Related pubchem assays (depositor defined):AID1779, AID1784, AID2135]; assay type: functional
Sequence of Tyrosine-protein phosphatase non-receptor type 12 (Q05209 whole entry): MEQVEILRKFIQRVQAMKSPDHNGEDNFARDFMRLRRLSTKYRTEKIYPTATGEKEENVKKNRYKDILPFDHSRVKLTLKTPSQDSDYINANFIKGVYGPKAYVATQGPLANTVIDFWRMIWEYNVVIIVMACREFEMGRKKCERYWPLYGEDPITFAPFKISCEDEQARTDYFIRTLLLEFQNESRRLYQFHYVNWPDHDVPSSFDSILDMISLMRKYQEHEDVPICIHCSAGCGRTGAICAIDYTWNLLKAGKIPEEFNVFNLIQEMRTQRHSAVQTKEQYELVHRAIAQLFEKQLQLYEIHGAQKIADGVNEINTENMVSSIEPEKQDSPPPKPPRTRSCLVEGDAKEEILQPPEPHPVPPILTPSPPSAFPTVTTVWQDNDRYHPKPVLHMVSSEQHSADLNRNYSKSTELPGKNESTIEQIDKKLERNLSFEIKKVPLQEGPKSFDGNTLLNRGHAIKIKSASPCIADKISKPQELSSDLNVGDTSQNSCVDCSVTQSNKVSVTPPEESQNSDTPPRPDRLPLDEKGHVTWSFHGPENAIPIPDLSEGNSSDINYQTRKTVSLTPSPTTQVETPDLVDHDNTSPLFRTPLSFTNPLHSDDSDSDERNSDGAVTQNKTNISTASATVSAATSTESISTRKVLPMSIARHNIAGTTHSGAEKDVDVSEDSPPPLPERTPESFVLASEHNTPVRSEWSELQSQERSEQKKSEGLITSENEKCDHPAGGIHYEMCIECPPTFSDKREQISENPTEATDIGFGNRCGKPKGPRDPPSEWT

[2] = target: Glyceraldehyde-3-phosphate dehydrogenase (Homo sapiens, UniProt P04406)
Sequence of Glyceraldehyde-3-phosphate dehydrogenase (P04406 whole entry): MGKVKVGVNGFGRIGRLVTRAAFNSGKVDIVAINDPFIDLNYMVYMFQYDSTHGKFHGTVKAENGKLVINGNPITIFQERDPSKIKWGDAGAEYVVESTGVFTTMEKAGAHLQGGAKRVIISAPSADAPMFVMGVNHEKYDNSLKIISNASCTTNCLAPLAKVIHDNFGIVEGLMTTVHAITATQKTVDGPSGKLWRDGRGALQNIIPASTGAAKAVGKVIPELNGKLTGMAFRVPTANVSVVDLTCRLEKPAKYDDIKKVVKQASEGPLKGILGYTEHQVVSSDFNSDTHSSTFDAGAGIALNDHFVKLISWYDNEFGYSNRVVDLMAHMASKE

[3] = target: T1, Tyrosine-protein phosphatase non-receptor type 22 (Homo sapiens, UniProt Q9Y2R2); experiment: LYP (PTPN22) phosphatase inhibitor potency, SAR follow-up, biochemical, pCAP fluorogenic substrate, fluorescence, set 3 (AID 449727); assay type: functional
T1 sequence (Q9Y2R2 whole entry): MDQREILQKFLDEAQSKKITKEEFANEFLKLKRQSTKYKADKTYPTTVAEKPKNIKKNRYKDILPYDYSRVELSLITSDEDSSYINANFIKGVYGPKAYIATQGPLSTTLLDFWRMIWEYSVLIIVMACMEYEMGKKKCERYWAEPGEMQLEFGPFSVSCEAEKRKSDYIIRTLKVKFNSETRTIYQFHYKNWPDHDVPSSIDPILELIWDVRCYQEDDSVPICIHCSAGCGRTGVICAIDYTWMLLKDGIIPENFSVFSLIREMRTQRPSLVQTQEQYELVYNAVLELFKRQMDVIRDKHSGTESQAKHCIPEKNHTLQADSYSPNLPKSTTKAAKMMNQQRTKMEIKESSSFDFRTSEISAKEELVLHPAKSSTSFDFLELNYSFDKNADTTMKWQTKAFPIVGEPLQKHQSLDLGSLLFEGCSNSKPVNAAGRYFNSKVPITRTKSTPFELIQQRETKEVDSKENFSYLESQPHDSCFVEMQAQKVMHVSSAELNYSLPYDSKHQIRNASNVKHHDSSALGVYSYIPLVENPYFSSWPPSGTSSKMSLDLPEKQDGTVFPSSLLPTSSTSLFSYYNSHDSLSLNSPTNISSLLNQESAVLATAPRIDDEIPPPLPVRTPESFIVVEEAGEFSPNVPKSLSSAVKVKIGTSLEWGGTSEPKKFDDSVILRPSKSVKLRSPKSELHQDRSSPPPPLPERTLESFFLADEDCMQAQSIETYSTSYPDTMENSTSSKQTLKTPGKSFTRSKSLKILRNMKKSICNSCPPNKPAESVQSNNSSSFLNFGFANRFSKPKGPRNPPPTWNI

[4] = target: T1, Tyrosine-protein phosphatase non-receptor type 22; experiment: SAR LYP1 Fluorescent Assay using OMFP substrate for In Vitro dose response studies - Set 3. [Related pubchem assays (depositor defined):AID1779, AID1784, AID2140, AID2686]; assay type: functional
[5] = target: Bcl-2-like protein 10 (Homo sapiens, UniProt Q9HD36); experiment: displacers of TR3 peptide from Bcl-B, primary screen, selectivity assay for Bfl-1 inhibitor project, biochemical, fluorescence polarization, FITC-TR3 peptide (AID 748);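 note: fluorescence polarization from a fluorescein-labelled TR3 peptide binding purified Bcl-B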
Sequence of Bcl-2-like protein 10 (Q9HD36 whole entry): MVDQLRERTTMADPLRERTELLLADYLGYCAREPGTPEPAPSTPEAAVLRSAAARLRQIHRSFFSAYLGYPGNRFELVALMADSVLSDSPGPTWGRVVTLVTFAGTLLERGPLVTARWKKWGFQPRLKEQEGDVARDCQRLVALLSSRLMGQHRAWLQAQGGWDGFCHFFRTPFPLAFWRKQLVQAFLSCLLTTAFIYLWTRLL

[6] = target: Induced myeloid leukemia cell differentiation protein Mcl-1 (Homo sapiens, UniProt Q07820); assay type: functional
Sequence of Induced myeloid leukemia cell differentiation protein Mcl-1 (Q07820 whole entry, the tested form may be a part): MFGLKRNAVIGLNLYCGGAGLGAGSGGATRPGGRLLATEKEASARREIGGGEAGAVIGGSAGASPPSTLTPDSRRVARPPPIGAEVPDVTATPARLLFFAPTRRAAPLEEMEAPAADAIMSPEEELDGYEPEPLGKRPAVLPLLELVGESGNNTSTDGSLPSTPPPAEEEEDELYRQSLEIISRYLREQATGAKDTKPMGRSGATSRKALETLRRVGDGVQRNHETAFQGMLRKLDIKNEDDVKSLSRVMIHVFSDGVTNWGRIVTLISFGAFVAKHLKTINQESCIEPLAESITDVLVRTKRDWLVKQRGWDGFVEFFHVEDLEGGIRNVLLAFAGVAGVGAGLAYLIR

[7] = target: T2, Hepatocyte nuclear factor 4-alpha (Homo sapiens, UniProt P41235); assay type: functional, cell-based;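 note: biochemical luminescence-based dose-response counterscreen measuring inhibition of HNF4 dimerization, run alongside a screen for blockers of ABHD5–perilipin-5 interaction; split luciferase complementation of HNF4 fusion proteins in cell lysate measuring dimerization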
T2 sequence (P41235 whole entry): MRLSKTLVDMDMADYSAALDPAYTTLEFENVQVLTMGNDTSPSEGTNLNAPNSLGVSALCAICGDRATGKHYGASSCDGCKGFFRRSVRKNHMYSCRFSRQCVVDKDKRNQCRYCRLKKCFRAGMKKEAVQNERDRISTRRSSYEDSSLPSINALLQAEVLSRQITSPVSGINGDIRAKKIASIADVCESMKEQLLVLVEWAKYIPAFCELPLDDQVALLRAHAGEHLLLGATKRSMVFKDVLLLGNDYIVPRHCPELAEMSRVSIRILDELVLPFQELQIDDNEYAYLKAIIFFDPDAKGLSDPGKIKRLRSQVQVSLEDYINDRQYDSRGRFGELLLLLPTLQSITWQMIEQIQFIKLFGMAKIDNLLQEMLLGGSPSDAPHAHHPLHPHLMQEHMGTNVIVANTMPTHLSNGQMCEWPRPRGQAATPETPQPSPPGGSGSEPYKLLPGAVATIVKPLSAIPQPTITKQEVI

[8] = target: T3, Dual specificity protein phosphatase 6 (Rattus norvegicus, UniProt Q64346); assay type: functional
T3 sequence (Q64346 whole entry): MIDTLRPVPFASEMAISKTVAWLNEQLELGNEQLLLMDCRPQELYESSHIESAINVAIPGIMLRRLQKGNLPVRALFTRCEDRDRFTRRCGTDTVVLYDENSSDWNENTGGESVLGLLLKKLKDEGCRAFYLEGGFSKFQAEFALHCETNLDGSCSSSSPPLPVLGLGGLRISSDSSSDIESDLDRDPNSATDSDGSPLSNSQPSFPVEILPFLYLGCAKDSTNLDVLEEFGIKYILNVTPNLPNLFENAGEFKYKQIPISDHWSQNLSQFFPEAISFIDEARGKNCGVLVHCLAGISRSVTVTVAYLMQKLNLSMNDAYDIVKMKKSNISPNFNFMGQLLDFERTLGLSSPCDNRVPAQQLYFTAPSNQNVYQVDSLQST

[9] = target: T3, Dual specificity protein phosphatase 6
[10] = target: Heat shock 70 kDa protein 1A (Homo sapiens, UniProt P0DMV8); experiment: Hsp70 inhibitors, SAR follow-up, biochemical, fluorescence polarization (AID 1072)
[11] = target: T4, Caspase-6 (Homo sapiens, UniProt P55212); experiment: human caspase-6 inhibitors, dose response, biochemical, VEID-R110 fluorescence, cherry-pick (AID 720632)
T4 sequence (P55212 whole entry): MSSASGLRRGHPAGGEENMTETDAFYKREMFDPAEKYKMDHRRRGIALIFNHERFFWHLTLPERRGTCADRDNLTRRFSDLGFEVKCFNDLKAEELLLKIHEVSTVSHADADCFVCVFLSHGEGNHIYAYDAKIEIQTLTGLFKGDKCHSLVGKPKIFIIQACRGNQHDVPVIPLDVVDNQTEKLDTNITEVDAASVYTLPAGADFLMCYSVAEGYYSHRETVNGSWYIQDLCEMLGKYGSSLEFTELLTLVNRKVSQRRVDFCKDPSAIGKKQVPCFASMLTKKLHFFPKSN

[12] = target: Caspase-8 (Homo sapiens, UniProt Q14790); experiment: caspase-8 inhibition counter-screen, dose response, selectivity assay for caspase-6 inhibitor project, biochemical, Z-IETD-R110 fluorescence, cherry-picked samples (AID 743294)
Sequence of Caspase-8 (Q14790 217-374 limits assumed): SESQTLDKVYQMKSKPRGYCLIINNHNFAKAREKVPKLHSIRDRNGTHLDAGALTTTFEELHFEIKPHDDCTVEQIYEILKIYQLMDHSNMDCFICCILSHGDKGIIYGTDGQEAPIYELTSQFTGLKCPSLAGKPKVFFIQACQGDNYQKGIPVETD
Sequence of Caspase-8 (Q14790 385-479 limits assumed): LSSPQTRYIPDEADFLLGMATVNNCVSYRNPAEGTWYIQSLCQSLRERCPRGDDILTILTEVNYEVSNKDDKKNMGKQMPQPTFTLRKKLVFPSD

[13] = target: Heat shock cognate 71 kDa protein (Homo sapiens, UniProt P11142); experiment: In Vitro Hsc70 Dose Response Fluorescence Polarization Assay. [Related pubchem assays: 1072 ]
Sequence of Heat shock cognate 71 kDa protein (P11142 whole entry): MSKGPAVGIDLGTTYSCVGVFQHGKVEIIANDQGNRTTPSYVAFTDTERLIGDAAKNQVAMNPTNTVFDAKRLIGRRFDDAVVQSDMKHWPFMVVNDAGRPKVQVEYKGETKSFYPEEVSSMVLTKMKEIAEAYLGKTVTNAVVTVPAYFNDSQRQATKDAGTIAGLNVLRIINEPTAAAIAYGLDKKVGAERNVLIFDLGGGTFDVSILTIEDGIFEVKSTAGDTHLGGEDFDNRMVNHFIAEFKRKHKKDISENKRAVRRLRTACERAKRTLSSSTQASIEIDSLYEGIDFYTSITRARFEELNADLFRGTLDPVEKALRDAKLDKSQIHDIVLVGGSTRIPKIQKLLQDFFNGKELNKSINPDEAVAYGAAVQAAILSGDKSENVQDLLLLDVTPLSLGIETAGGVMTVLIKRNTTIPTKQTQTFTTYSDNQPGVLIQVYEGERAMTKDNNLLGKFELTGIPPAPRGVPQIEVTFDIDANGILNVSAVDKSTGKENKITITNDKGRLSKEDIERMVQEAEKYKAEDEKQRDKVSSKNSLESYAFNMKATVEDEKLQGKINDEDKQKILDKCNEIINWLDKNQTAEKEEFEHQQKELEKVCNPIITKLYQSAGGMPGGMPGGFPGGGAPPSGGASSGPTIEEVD

[14] = target: Caspase-7 (Homo sapiens, UniProt P55210); experiment: human caspase-7 inhibitors, dose response, selectivity assay for caspase-6 inhibitor project, biochemical, DEVD-R110 fluorescence, cherry-pick (AID 743295)
Sequence of Caspase-7 (P55210 24-198 limits assumed): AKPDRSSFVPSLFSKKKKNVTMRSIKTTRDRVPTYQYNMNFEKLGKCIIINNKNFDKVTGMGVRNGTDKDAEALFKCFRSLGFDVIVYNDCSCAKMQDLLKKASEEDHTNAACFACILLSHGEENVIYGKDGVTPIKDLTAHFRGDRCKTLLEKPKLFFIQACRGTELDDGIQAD
Sequence of Caspase-7 (P55210 207-303 limits assumed): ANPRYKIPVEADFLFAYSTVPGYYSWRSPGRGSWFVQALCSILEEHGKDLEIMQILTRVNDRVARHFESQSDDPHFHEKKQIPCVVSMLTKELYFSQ

[15] = target: T5, Tyrosine-protein phosphatase non-receptor type 7 (Homo sapiens, UniProt P35236); assay type: functional
T5 sequence (P35236 whole entry): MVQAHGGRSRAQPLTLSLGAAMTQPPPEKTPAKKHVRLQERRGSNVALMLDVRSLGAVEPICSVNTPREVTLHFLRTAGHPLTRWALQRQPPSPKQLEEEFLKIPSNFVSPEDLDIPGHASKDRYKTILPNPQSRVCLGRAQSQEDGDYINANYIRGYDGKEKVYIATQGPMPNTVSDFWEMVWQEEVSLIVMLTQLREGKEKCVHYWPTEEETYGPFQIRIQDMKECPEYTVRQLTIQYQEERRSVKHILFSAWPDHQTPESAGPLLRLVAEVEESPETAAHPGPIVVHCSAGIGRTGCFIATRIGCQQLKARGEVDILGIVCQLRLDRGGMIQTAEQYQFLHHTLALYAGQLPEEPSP

[16] = target: DNA (cytosine-5)-methyltransferase 1 (Homo sapiens, UniProt P26358); experiment: DNMT1 methyltransferase inhibitors, confirmation, biochemical, fluorescent molecular beacon (AID 602386); assay type: functional
[17] = target: Tumor necrosis factor (Homo sapiens, UniProt P01375); experiment: TNFa-triggered NF-kB activation inhibitors, SAR follow-up, cell-based, revised (AID 2337); assay type: functional
Sequence of Tumor necrosis factor (P01375 whole entry): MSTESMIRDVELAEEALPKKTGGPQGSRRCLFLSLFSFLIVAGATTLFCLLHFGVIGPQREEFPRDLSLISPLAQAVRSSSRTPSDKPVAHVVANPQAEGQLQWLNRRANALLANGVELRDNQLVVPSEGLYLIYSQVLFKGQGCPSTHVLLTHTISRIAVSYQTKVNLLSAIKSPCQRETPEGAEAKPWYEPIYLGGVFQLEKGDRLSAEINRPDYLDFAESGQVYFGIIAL

[18] = test system: HEK293; experiment: cells; settings: Homo sapiens;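 note: cells exposed to compound for 14 hours overnight before viability readout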
[19] = target: T6, Nucleotide-binding oligomerization domain-containing protein 1 (Homo sapiens, UniProt Q9Y239); experiment: NOD1 signaling inhibitors, SAR follow-up, revised (AID 2333); assay type: functional
T6 sequence (Q9Y239 whole entry): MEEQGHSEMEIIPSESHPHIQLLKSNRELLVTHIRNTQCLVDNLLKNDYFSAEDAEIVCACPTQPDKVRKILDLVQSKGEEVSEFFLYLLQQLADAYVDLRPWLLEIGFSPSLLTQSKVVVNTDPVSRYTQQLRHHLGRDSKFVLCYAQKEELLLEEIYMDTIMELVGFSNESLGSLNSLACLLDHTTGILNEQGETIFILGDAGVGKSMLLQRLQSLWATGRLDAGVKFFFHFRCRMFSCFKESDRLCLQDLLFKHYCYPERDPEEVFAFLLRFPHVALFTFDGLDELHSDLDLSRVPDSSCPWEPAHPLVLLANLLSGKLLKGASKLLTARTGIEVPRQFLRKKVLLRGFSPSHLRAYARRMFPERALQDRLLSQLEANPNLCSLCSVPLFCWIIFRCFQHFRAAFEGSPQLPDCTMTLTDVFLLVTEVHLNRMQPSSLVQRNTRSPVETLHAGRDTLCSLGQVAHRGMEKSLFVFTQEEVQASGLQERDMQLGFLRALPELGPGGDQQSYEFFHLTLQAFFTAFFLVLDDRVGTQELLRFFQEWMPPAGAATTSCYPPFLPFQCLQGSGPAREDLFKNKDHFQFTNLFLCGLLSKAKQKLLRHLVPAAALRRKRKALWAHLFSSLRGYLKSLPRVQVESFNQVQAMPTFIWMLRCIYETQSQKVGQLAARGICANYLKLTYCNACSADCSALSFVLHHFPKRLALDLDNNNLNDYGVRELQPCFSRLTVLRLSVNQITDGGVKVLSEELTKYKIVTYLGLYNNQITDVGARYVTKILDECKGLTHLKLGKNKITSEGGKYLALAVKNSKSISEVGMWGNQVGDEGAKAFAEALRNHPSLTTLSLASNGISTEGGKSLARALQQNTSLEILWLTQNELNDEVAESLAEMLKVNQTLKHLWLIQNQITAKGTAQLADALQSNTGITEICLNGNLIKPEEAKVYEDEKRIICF

[20] = target: Nucleotide-binding oligomerization domain-containing protein 2 (Homo sapiens, UniProt Q9HC29); experiment: PubChem AID 2334; assay type: functional
Sequence of Nucleotide-binding oligomerization domain-containing protein 2 (Q9HC29 whole entry, the tested form may be a part): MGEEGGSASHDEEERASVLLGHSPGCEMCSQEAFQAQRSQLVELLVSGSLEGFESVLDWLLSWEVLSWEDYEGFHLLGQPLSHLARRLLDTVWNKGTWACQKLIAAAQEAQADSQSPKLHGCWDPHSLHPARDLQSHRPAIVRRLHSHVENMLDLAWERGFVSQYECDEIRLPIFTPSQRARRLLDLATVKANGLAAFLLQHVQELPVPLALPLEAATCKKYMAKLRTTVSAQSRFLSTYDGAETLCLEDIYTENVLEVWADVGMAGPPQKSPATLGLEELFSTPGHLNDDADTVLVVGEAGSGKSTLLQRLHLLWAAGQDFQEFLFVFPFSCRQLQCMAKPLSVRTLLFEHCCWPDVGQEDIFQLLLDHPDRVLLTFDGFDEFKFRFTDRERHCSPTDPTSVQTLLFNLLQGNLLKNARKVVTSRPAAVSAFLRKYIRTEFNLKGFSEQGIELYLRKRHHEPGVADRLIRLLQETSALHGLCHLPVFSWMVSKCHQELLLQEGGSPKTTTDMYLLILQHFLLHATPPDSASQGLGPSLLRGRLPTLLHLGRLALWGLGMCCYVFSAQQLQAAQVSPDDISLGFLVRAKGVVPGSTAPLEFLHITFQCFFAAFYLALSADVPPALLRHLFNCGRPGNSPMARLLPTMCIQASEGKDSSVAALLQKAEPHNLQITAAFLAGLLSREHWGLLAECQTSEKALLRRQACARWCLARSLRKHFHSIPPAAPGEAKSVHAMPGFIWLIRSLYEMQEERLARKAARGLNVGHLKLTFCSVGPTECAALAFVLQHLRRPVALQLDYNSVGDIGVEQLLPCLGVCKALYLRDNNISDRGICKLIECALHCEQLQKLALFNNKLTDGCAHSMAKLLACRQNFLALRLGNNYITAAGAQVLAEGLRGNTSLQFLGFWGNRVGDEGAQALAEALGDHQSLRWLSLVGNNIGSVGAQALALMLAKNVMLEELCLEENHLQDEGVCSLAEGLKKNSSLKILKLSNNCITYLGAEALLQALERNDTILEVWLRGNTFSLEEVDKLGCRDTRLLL

IC50 [1]: > 100 µM (inactive)
IC50 [2]: > 100 µM (not active)
IC50 [3]: > 100 µM (inactive)
IC50 [4]: > 100 µM (inactive)
Compound: COc1cc(/C=C2\SC(N(C)c3ccc(O)cc3)=NC2=O)ccc1OCC(=O)O

IC50 [5]: 19 µM (active)
IC50 [6]: 3.01 µM (active)
IC50 [7]: 1.6 µM (active)
Compound: Cc1ccc(NC(=O)CSc2nnc(-c3ccco3)c(-c3ccco3)n2)cc1

IC50 [8]: 12 µM (active)
IC50 [9]: 14.2 µM (active)
IC50 [2]: > 100 µM (not active)
IC50 [10]: > 100 µM (not active)
AC50 [11]: 2 µM (active)
AC50 [12]: > 70 µM (inactive)
IC50 [13]: > 100 µM (not active)
AC50 [14]: 34.1 µM (active)
IC50 [15]: 9.63 µM (active)
IC50 [16]: 4.36 µM (active)
Compound: O=C(O)C1Nc2c(Cl)cc(Cl)c(Cl)c2C2C=CCC12 (stereo unspecified)

Compound: CCCCNCC(=O)Nc1sc2c(c1C(=O)O)CCCC2
IC50 [17]: > 20 µM (inactive)
IC50 [18]: > 20 µM (inactive)
IC50 [19]: > 20 µM (inactive)
IC50 [20]: > 20 µM (inactive)
